In patent publication US20070066672A1, “Benzimidazole derivatives and use thereof as peptide deformylase inhibitors” (Arpida A/S, priority 2003, published 2007):

Key:
[1] = target: T1, Peptide Deformylase (PDF) (Escherichia coli, UniProt P0A6K3); test: Bacterial peptide deformylase (PDF) assay, colorimetric cell free, enzyme from E. coli; format: biochemical
T1 construct: made in house
Description: (§1) To find inhibitors of Peptide Deformylase (PDF), a colorimetric cell free assay for measuring the enzymatic activity of PDF has been adapted to the microtiter plate format (96 wells). The assay comprises three components, purified PDF, f-Met-Ala as substrate and TNBS as the detecting agent of primary amino groups. The resulting TNP_NH-Met-Ala sulfite complex can be detected at 420 nm. PDF enzymes, containing Fe^2+ as the native metal, are purified and are stabilized by the addition of tris(2-carboxyethyl)phosphine (TCEP).
(§2) The IC50 value of a compound of the invention as a bacterial PDF inhibitor was determined using the following assay.
(§3) Assay buffer 0.1 M MOPS pH was adjusted to 7.2 with NaOH, containing 0.25 M NaCl, 100 μg/mL catalase and 1 mg/mL BSA.
(§4) E. coli enzyme (2.5 mg/ml) 10 μl+290 μl Assay buffer, 1 μl per ml enzyme mix. S. aureus (15 mg/ml) 10 μl+990 μl Assay buffer, 0.3 μl per ml enzyme mix.
(§5) Substrate mix: 10 mM f-Met-Ala was made up from 200 mM f-Met-Ala in methanol with assay buffer.
(§6) TNBS solution: Freshly dilute 1 M TNBS stock solution diluted 1:10 with water.
(§7) Buffer C: 0.5 M borate buffer adjusted to pH 9.5 with NaOH.
(§8) Buffer D: 0.2 ml of freshly prepared 0.5 M Na2SO3 was mixed with 9.8 mL of 0.5M NaH2PO4.
(§9) Inhibitor solution: 2 mM Sodium 4-(hydroxymercurio)benzoate in assay buffer.
(§10) Compound mix: Compound of formula I dissolved in DMSO in a 10 mg/mL stock solution. Further dilutions were made in DMSO in the concentration range between 0.05 to 100 mM.
(§11) The assay was performed in a 96 Microtiter plate containing test compound. To each well containing test compound mix was added 75 microliter of enzyme mix from E. coli followed by the addition of 25 microliter of substrate mix. The resulting mix was incubated for 30 minutes at room temperature with shaking. TNBS solution (50 microliter/well) was added and the resulting mixture was incubated for 15 minutes under shaking. Buffer C was then added (20 microliter/well). After incubating at room temperature for 15 minutes under shaking, buffer D was added (50 microliter/well). The optical […] was then measured at 420 nm, thereby determining the IC50 value.

[2] = target: T2, Peptide Deformylase (PDF) (Staphylococcus aureus, UniProt P68826); test: Bacterial peptide deformylase (PDF) assay, colorimetric cell free, enzyme from S. aureus; format: biochemical; settings: f-Met-Ala substrate, TNBS detection at 420 nm
T2 construct: made in house
T2 sequence (P68826 1-183): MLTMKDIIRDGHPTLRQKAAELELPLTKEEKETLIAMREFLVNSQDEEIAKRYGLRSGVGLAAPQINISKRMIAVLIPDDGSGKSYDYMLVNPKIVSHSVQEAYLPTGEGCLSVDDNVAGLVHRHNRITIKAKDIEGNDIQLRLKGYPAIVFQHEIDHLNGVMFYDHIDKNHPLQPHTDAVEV
Description: as §1, §2, §3, §4, §5, §6, §7, §8, §9, §10, §11
The assay was repeated using enzyme mix from S. aureus.

T1 sequence (P0A6K3 whole entry): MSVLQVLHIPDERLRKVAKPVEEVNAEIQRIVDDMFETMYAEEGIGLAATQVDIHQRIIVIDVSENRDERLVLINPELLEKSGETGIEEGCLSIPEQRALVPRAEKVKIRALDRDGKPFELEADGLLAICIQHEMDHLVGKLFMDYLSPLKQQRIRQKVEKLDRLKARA

Row | SMILES | IC50 [1] [µM] | IC50 [2] [µM]
1 | CCC(NC(=O)CCS)c1nc2cc(C(=O)NCC(=O)OC)ccc2n1C1CC1 (stereo not drawn) [Example 1, ({1-Cyclopropyl-2-[1-(3-mercapto-propionylamino)-propyl]-1H-benzoimidazole-5-carbonyl}-amino)-acetic acid methyl ester] | 65 | 45.4
2 | COC(=O)CNC(=O)c1ccc2c(c1)nc(C(Cc1ccccc1)NC(=O)CCS)n2Cc1ccc(Cl)cc1 (stereo not drawn) [Example 2, ({1-(4-Chloro-benzyl)-2-[1-(3-mercapto-propionylamino)-2-phenyl-ethyl]-1H-benzoimidazole-5-carbonyl}-amino)-acetic acid methyl ester] | 22.1 | 6.1
3 | COC(=O)CNC(=O)c1ccc2c(c1)nc(C(CCSC)NC(=O)CCC(=O)O)n2Cc1ccccc1 (stereo not drawn) [Example 3, N-{1-[1-Benzyl-5-(methoxycarbonylmethyl-carbamoyl)-1H-benzoimidazol-2-yl]-3-methylsulfanyl-propyl}-succinamic acid] | 80 | 31.4
4 | CCCCn1c(C(Cc2ccccc2)NC(=O)CCC(=O)O)nc2cc(C(=O)NCC(=O)OC)ccc21 (stereo not drawn) [Example 4, N-{1-[1-Butyl-5-(methoxycarbonylmethyl-carbamoyl)-1H-benzoimidazol-2-yl]-2-phenyl-ethyl}-succinamic acid] | 2.8 | 1
5 | COC(=O)CNC(=O)c1ccc2c(c1)nc(C(Cc1ccccc1)NC(=O)CCC(=O)O)n2Cc1ccco1 (stereo not drawn) [Example 5, N-{1-[1-Furan-2-ylmethyl-5-(methoxycarbonylmethyl-carbamoyl)-1H-benzoimidazol-2-yl]-2-phenyl-ethyl}-succinamic acid] | 12.9 | 1.6
6 | COC(=O)CNC(=O)c1ccc2c(c1)nc(C(Cc1ccccc1)NC(=O)CCC(=O)O)n2Cc1ccc(Cl)cc1 (stereo not drawn) [Example 6, N-{1-[1-(4-Chloro-benzyl)-5-(methoxycarbonylmethyl-carbamoyl)-1H-benzoimidazol-2-yl]-2-phenyl-ethyl}-succinamic acid] | 1.3 | 0.093
7 | COC(=O)CNC(=O)c1ccc2c(c1)nc(C(CCc1ccccc1)NC(=O)CCC(=O)O)n2C1CC1 (stereo not drawn) [Example 7, N-{1-[1-Cyclopropyl-5-(methoxycarbonylmethyl-carbamoyl)-1H-benzoimidazol-2-yl]-3-phenyl-propyl}-succinamic acid] | 2.6 | 2.7
8 | COC(=O)CNC(=O)c1ccc2c(c1)nc(C(CCc1ccccc1)NC(=O)CCC(=O)O)n2CC1CCCCC1 (stereo not drawn) [Example 8, N-{1-[1-Cyclohexylmethyl-5-(methoxycarbonylmethyl-carbamoyl)-1H-benzoimidazol-2-yl]-3-phenyl-propyl}-succinamic acid] | 29.8 | 15.1
9 | COC(=O)CNC(=O)c1ccc2c(c1)nc(C(CCc1ccccc1)NC(=O)CCC(=O)O)n2Cc1ccccc1Cl (stereo not drawn) [Example 9, N-{1-[1-(2-Chloro-benzyl)-5-(methoxycarbonylmethyl-carbamoyl)-1H-benzoimidazol-2-yl]-3-phenyl-propyl}-succinamic acid] | 27.8 | 18
10 | CCC(NC(=O)CCC(=O)O)c1nc2cc(C(=O)NCC(=O)OC)ccc2n1C1CC1 (stereo not drawn) [Example 10, N-{1-[1-Cyclopropyl-5-(methoxycarbonylmethyl-carbamoyl)-1H-benzoimidazol-2-yl]-propyl}-succinamic acid] | 5.6 | 0.023
11 | CCC(NC(=O)CCC(=O)O)c1nc2cc(C(=O)NCC(=O)OC)ccc2n1Cc1ccco1 (stereo not drawn) [Example 11, N-{1-[1-Furan-2-ylmethyl-5-(methoxycarbonylmethyl-carbamoyl)-1H-benzoimidazol-2-yl]-propyl}-succinamic acid] | 2.8 | 1.4
12 | CCC(NC(=O)CCC(=O)O)c1nc2cc(C(=O)NCC(=O)OC)ccc2n1Cc1ccccc1 (stereo not drawn) [Example 12, N-{1-[1-Benzyl-5-(methoxycarbonylmethyl-carbamoyl)-1H-benzoimidazol-2-yl]-propyl}-succinamic acid] | 4.8 | 0.068
13 | COC(=O)CNC(=O)c1ccc2c(c1)nc(C(CC(C)C)NC(=O)CCC(=O)O)n2C1CC1 (stereo not drawn) [Example 13, N-{1-[1-Cyclopropyl-5-(methoxycarbonylmethyl-carbamoyl)-1H-benzoimidazol-2-yl]-3-methyl-butyl}-succinamic acid] | 4 | 0.119
14 | CCCCn1c(C(CC(C)C)NC(=O)CCC(=O)O)nc2cc(C(=O)NCC(=O)OC)ccc21 (stereo not drawn) [Example 14, N-{1-[1-Butyl-5-(methoxycarbonylmethyl-carbamoyl)-1H-benzoimidazol-2-yl]-3-methyl-butyl}-succinamic acid] | 7.3 | 2.6
15 | COC(=O)CNC(=O)c1ccc2c(c1)nc(C(CC(C)C)NC(=O)CCC(=O)O)n2Cc1ccccc1 (stereo not drawn) [Example 15, N-{1-[1-Benzyl-5-(methoxycarbonylmethyl-carbamoyl)-1H-benzoimidazol-2-yl]-3-methyl-butyl}-succinamic acid] | 3.3 | 4
16 | COC(=O)CNC(=O)c1ccc2c(c1)nc(C(Cc1cccc3ccccc13)NC(=O)CCC(=O)O)n2Cc1ccccc1 (stereo not drawn) [Example 30, N-{1-[1-Benzyl-5-(methoxycarbonylmethyl-carbamoyl)-1H-benzoimidazol-2-yl]-2-naphthalen-1-yl-ethyl}-succinamic acid] | 7 | –
17 | COC(=O)CNC(=O)c1ccc2c(c1)nc(C(CC(C)C)NC(=O)CCC(=O)NO)n2C1CC1 (stereo not drawn) [Example 33, ({1-Cyclopropyl-2-[1-(3-hydroxycarbamoyl-propionylamino)-3-methyl-butyl]-1H-benzoimidazole-5-carbonyl}-amino)-acetic acid methyl ester] | – | 0.496
18 | CCCCn1c(C(CC(C)C)NC(=O)CCC(=O)NO)nc2cc(C(=O)NCC(=O)OC)ccc21 (stereo not drawn) [Example 34, ({1-Butyl-2-[1-(3-hydroxycarbamoyl-propionylamino)-3-methyl-butyl]-1H-benzoimidazole-5-carbonyl}-amino)-acetic acid methyl ester] | – | 2.27
19 | COC(=O)CNC(=O)c1ccc2c(c1)nc(C(CC(C)C)NC(=O)CCC(=O)NO)n2Cc1ccccc1 (stereo not drawn) [Example 35, ({1-Benzyl-2-[1-(3-hydroxycarbamoyl-propionylamino)-3-methyl-butyl]-1H-benzoimidazole-5-carbonyl}-amino)-acetic acid methyl ester] | – | 0.804
20 | COC(=O)CNC(=O)c1ccc2c(c1)nc(C(CCSC)NC(=O)CCC(=O)NO)n2C1CC1 (stereo not drawn) [Example 36, ({1-Cyclopropyl-2-[1-(3-hydroxycarbamoyl-propionylamino)-3-methylsulfanyl-propyl]-1H-benzoimidazole-5-carbonyl}-amino)-acetic acid methyl ester] | – | 1.5
21 | COC(=O)CNC(=O)c1ccc2c(c1)nc(C(CCSC)NC(=O)CCC(=O)NO)n2CC1CCCCC1 (stereo not drawn) [Example 37, ({1-Cyclohexylmethyl-2-[1-(3-hydroxycarbamoyl-propionylamino)-3-methylsulfanyl-propyl]-1H-benzoimidazole-5-carbonyl}-amino)-acetic acid methyl ester] | 0.317 | –
22 | COC(=O)CNC(=O)c1ccc2c(c1)nc(C(Cc1ccccc1)NC(=O)CCC(=O)NO)n2Cc1ccco1 (stereo not drawn) [Example 39, ({1-Furan-2-ylmethyl-2-[1-(3-hydroxycarbamoyl-propionylamino)-2-phenyl-ethyl]-1H-benzoimidazole-5-carbonyl}-amino)-acetic acid methyl ester] | 1.5 | –
23 | COC(=O)CNC(=O)c1ccc2c(c1)nc(C(Cc1cccc3ccccc13)NC(=O)CCC(=O)NO)n2CCc1cccs1 (stereo not drawn) [Example 44, {[2-[1-(3-Hydroxycarbamoyl-propionylamino)-2-naphthalen-1-yl-ethyl]-1-(2-thiophen-2-yl-ethyl)-1H-benzoimidazole-5-carbonyl]-amino}-acetic acid methyl ester] | 3.1 | –
24 | CCCCn1c(C(Cc2cccc3ccccc23)NC(=O)CCC(=O)NO)nc2cc(C(=O)NCC(=O)OC)ccc21 (stereo not drawn) [Example 45, ({1-Butyl-2-[1-(3-hydroxycarbamoyl-propionylamino)-2-naphthalen-1-yl-ethyl]-1H-benzoimidazole-5-carbonyl}-amino)-acetic acid methyl ester] | 5.8 | –
